Measurements taken from patent US20180326022A1, “COMPOSITIONS AND METHODS FOR IMPROVING HEART FUNCTION AND TREATING HEART FAILURE” (The Trustees of the University of Pennsylvania, priority 2017, published 2018).

Columns and labels:
human myocytes [1] = assay: Nanoindentation stiffness measurements; format: cell-based; conditions: failing human myocytes; 10 μM, 2 hours
Description: (§1) Viable myocytes were concentrated by gravity (5-7 min) and supernatant was aspirated to remove dead cells. Myocytes were resuspended in NT solution containing 1 mM Ca^2+ and concentrated by gravity (5-7 min) again. Cardiomyocytes used acutely were maintained in NT solution for up to 6 hours. Myocytes were treated with 10 μM parthenolide (Fisher Scientific NC9013142 or Sigma P0667) or 10 μM colchicine (Sigma) at room temperature in NT solution for 2 hours. Experiments were performed within 6 hours of isolation, except for those involving viral transduction in cultured cells.
MatTek glass bottom dish was coated 5 μl of 0.5 mg/ml laminin and air dried for 10 min. Culture medium was F-10 (1×) Nutrient Mixture (Ham) [+] L-Glutamine (Life Technologies, 11550-043) supplemented with insulin-transferrin selenium-X (Gibco, 51500-056), 20 mM HEPES, 1 μg/μl primocin (Invivogen, ant-pm-1), 0.4 mM extra CaCl2, 5% FBS, 25 μM cytochalasin D (Cayman, 11330). Viable myocytes were concentrated and a proper amount of medium was added in culture so that neighboring cells were not in direct contact. […]
Mechanical properties at the microscopic scale were measured using nanoindentation (Piuma, Optics11, The Netherlands). […] The Young's moduli were calculated automatically by the software, by fitting the force vs. indentation curve to the Hertz equation. […]

human myocytes [2] = assay: Cell contractility of human myocytes (0.5 Hz); format: cell-based
Description: as §1
MatTek glass bottom dish was coated 5 μl of 0.5 mg/ml laminin and air dried for 10 min. Culture medium was F-10 (1×) Nutrient Mixture (Ham) [+] L-Glutamine (Life Technologies, 11550-043) supplemented with insulin-transferrin selenium-X (Gibco, 51500-056), 20 mM HEPES, 1 μg/μl primocin (Invivogen, ant-pm-1), 0.4 mM extra CaCl2, 5% FBS, 25 μM cytochalasin D (Cayman, 11330). Viable myocytes were concentrated and a proper amount of medium was added in culture so that neighboring cells were not in direct contact. Viral constructs were permitted to express for 48 hours with Moi=100-200. Adenoviral TTL-IRES-dsRed and EMTB-3x GFP were transduced in human myocytes as previously performed in rat myocytes. Myocytes were replenished with fresh warm medium without cytochalasin D before calcium and contractility measurements.
Experiments were performed as described in Example 1 with some modification. Contractility is measured in custom-fabricated cell chambers (Ionoptix) mounted on an LSM Zeiss 880 inverted confocal microscope using a 40× oil 1.4 NA objective and transmitted light camera (IonOptix MyoCam-S). Myoyctes were maintained in NT solution (for freshly isolated myocytes) or culture medium (without cytochalasin D, for cultured myocytes) at room temperature and electrical field stimulation was provided at 0.5 Hz with a myopacer (IonOptix MYP100) through platinum electrodes lowered into the bath. Sarcomere length was measured optically by Fourier transform analysis (IonWizard, IonOptix). After 10-30 s of 0.5 Hz pacing to achieve steady state, five traces were recorded and analyzed. If not specified, contractility data was obtained at room temperature.
To test whether the contractile improvement over MT destabilization remains under more physiological conditions, both 0.5 Hz and 1 Hz contractions at 37 C were recorded and analyzed in a small subset of isolated human myocytes (1 NF and 1 failing heart, FIG. 29C).

[3] = test system: cardiac and skeletal muscle; conditions: 10 μM; refs (13), (8); cited from earlier work
detyrosinated tubulin = assay: Western blotting of cardiomyocyte lysates (TTL, α-, detyr-, tyr-tubulin); format: cell-based; conditions: rat cardiomyocytes; PTL treatment; shTTL; short term EpoY
Description: (§2) Viral constructs were permitted to express for 24-72 hours with Moi=100-200. Parthenolide (Fisher Scientific NC9013142) treatment was carried out at room temperature for 2 hours at 10 μM. All experiments were performed within 48 hours of isolation, except those involving shTTL, which were allowed 72 hours to improve knockdown efficiency.
For analysis of proteins expression levels quantitative Western blots were performed using infrared fluorescence imaging on an Odyssey Imager (LI-COR). Cell homogenates were prepared in ice-cold IGEPAL lysis buffer. After 1 freezing cycle lysates were spun at 18,000×g for 5 min. Aliquots of supernatants were mixed with 4× sample buffer (LI-COR, 928-40004) containing 10% BME, boiled for 6 min., and resolved on sodium dodecyl sulfate (SDS)-polyacrylamide gel electrophoresis Tris-glycine gels (Bio-Rad). Proteins were transferred to a membrane on Mini Trans-Blot Cell (Bio-Rad), blocked 1 h in Odyssey Blocking Buffer (TBS) (LI-COR, 927-50000), and probed with the corresponding primary antibody (see list below) for 2 h at room temperature. Membranes were then rinsed with TBST 4 times for 5 min, and incubated with secondary antibodies (below) for 1.5 h at room temperature. Membranes were rinsed again with TBST and then imaged on Odyssey Imager. Image analysis was performed using Image Studio Lite software (LI-COR). Fluorescent band intensity was always normalized to GAPDH loading control. Analysis of human tissue samples for levels of detyrosinated tubulin was performed blinded to the experimental groups.

[4] = test system: primary adult rat cardiomyocytes; assay: Cell contractility (sarcomere shortening, 1 Hz pacing); format: cell-based; conditions: rat cardiomyocytes, 1 Hz; PTL 10 μM 2 hours
Description: as §2
Experiments were performed in custom-fabricated cell chambers (Ionoptix) mounted on an LSM Zeiss 780 inverted confocal microscope using a 40× oil 1.4 NA objective and transmitted light camera (IonOptix MyoCam-S). For contractility assays, cells were maintained in NT solution and electrical field stimulation was provided at 1 Hz with a myopacer (IonOptix MYP100) through platinum electrodes lowered into the bath. Sarcomere length was measured optically by Fourier transform analysis (IonWizard, IonOptix). After 15 s of 1 Hz pacing to achieve steady state, five traces were recorded and analyzed.

C=C1C(=O)O[C@H]2[C@H]1CC/C(C)=C/CC[C@@]1(C)O[C@@H]21 [PTL, 4,5-epoxygermacra-1(10),11(13)-dien-12,6-olactone]
viscoelasticity (Emax and EΔ) (human myocytes [1]): robustly reduced viscoelasticity | late phase of relaxation (human myocytes [2]; NF human myocytes, 10 μM PTL): slightly prolonging | restoration of lost function (contractile velocities vs NF benchmark) (human myocytes [2]; failing human myocytes): ~50% | shortening amplitude and velocity, speed of relaxation (human myocytes [2]; failing human myocytes, 10 μM, 2 hours): robustly improved | effect on microtubules [3]: suppresses detyrosination | alpha / total tubulin levels (western blot) (detyrosinated tubulin): no significant change | detyrosinated tubulin (western blot) (detyrosinated tubulin): significant drop | Resting SL (μm) [4]: 1.803 μm | Vmax (μm/s) [4]: −5.35 μm/s | Vmin (μm/s) [4]: 4.28 μm/s | ΔSL (μm) [4]: 0.201 μm
